Measured values: US9877945B2 (priority 2013, dated 2018)
Where two headings read alike, the source gives them in different places.

Test system: Clostridium perfringens strain 56
Settings: for Number of birds with macroscopic necrotic enteritis lesions: lesion score 2 or more = positive; for Birds with macroscopic necrotic enteritis lesions, Total (%) (positive chicken in total) / Number of birds with macroscopic necrotic enteritis lesions, total: total of days 21-23
[1] = day 21, product on silica carrier in feed 5 / 2.5 / 2 kg/ton in weeks 1 / 2 / 3 (low conc for monobutyrate)
[2] = day 22, product on silica carrier in feed 5 / 2.5 / 2 kg/ton in weeks 1 / 2 / 3 (low conc for monobutyrate)
[3] = day 23, product on silica carrier in feed 5 / 2.5 / 2 kg/ton in weeks 1 / 2 / 3 (low conc for monobutyrate)
[4] = product on silica carrier in feed 5 / 2.5 / 2 kg/ton in weeks 1 / 2 / 3 (low conc for monobutyrate)
[5] = product on silica carrier in feed at high conc 7.5 / 6 / 5.5 kg/ton in weeks 1 / 2 / 3

How did the “Number of birds with macroscopic necrotic enteritis lesions” value [1] turn out when `CCCC(=O)OCC(O)CO` (centres unmarked) [glyceryl monobutyrate] was run?
The value was 5/9.

And the “Number of birds with macroscopic necrotic enteritis lesions” value (day 21, product on silica carrier in feed at high conc 7.5 / 6 / 5.5 kg/ton in weeks 1 / 2 / 3)?
Its value is 4/9.

And the “Number of birds with macroscopic necrotic enteritis lesions” value [2]?
The value was 3/9.

And the “Number of birds with macroscopic necrotic enteritis lesions” value (day 22, product on silica carrier in feed at high conc 7.5 / 6 / 5.5 kg/ton in weeks 1 / 2 / 3)?
The value was 5/9.

And the “Number of birds with macroscopic necrotic enteritis lesions” value [3]?
The value was 2/10.

And the “Number of birds with macroscopic necrotic enteritis lesions” value (day 23, product on silica carrier in feed at high conc 7.5 / 6 / 5.5 kg/ton in weeks 1 / 2 / 3)?
The value was 3/8.

And the “chickens died during the trial” value (pen 3: higher concentration in feed (7.5 / 6 / 5.5 kg/ton))?
The value was 2.

And the “Birds with macroscopic necrotic enteritis lesions, Total (%) (positive chicken in total)” value [4]?
The value was 36%.

What about the “Number of birds with macroscopic necrotic enteritis lesions, total” value [4] of the same compound?
Its value is 10/28.

And the “Birds with macroscopic necrotic enteritis lesions, Total (%) (positive chicken in total)” value [5]?
The value was 46%.

And the “Number of birds with macroscopic necrotic enteritis lesions, total” value [5]?
The value was 12/26.

Which results are given for `CCCC(=O)OCC(COC(=O)CCC)OC(=O)CCC` [glyceryl tributyrate]?
Result in preventing Clostridium perfringens-induced necrotic enteritis compared with glyceryl monobutyrate at either concentration (FIG. 1) (added to the feed, P value <0.05 taken as significant): significantly better result; Number of birds with macroscopic necrotic enteritis lesions [1]: 3/9; Number of birds with macroscopic necrotic enteritis lesions [2]: 2/9; Number of birds with macroscopic necrotic enteritis lesions [3]: 2/11; Birds with macroscopic necrotic enteritis lesions, Total (%) (positive chicken in total) [4]: 24%; Number of birds with macroscopic necrotic enteritis lesions, total [4]: 7/29
